Measurements published in patent US7423015B1, “Antihelminthic drugs as a treatment for hyperproliferative diseases” (Board of Regents, The University of Texas System, priority 2001, dated 2008).
Where two headings read alike, the source gives them in different places.

Assays:
[1] = tested on: H1299; experiment: Cell viability, trypan blue cell count assay; assay type: cell-based; conditions: Homo sapiens, NCI-H1299, H1299 (lung, p53 deleted), 100% = untreated cells
Protocol: (§1) All cell lines were grown in RPMI 1640 medium supplemented with 5% fetal bovine serum and 5% CO2. All experiments were done when the cells were 70% confluent. For cell growth measurements, 5×10^4 cells were plated in each well of six-well plates. Control and BZ-treated (0.05 μg/ml) cells were trypsinized and counted using a hemocytometer. Experiments were done in triplicate and the mean and standard deviation were determined by standard methods.
(§2) To further investigate the relationship between the induction of functional p53 and the subsequent apoptosis mediated by these drugs, the inventors posited that if BZs require wild-type p53 in order to exert their effect, then fenbendazole and mebendazole would not be cytotoxic to the many tumor lines producing a mutated p53 protein. To investigate this possibility, human cell lines derived from NSCLC origins of differing p53 status were further analyzed by a 5-day cell growth assay. The cells were plated onto a six-well plate, and the viability of the cells was determined by trypan blue exclusion. Cells were counted on a hemocytometer. The values shown are the means ±standard deviation of triplicate samples. Duplicate experiments gave similar results. H322 is a human lung adenocarcinoma line that produces a mutant p53 protein. […] However, fenbendazole and mebendazole induced nuclear accumulation of p53 only in the H460 cell line, which carries wild-type p53 genes. […] Cells were exposed to FZ (filled bar) or MZ (hatched bar) for 24 hr. A concentration of 0.05 μg/ml FZ and MZ was used. An immunoblot analysis of nuclear p53 was also performed to determine whether these drugs induced the production of p53. Equal amounts of protein extracts from each cell line before and after treatment were used for this analysis.

[2] = tested on: H226Br; experiment: Cell viability, trypan blue cell count assay; assay type: cell-based; conditions: Homo sapiens, H226Br (lung, R254), 100% = untreated cells
Protocol: as §1, §2

[3] = tested on: H358; experiment: Cell viability, trypan blue cell count assay; assay type: cell-based; conditions: Homo sapiens, NCI-H358, H358 (lung, p53 deleted), 100% = untreated cells
Protocol: as §1, §2

[4] = tested on: H460; experiment: Cell viability, trypan blue cell count assay; assay type: cell-based; conditions: Homo sapiens, NCI-H460, H460 (lung, wild-type p53), 100% = untreated cells
Protocol: as §1, §2

[5] = tested on: H549; experiment: Cell viability, trypan blue cell count assay; assay type: cell-based; conditions: Homo sapiens, H549 (lung, wild-type p53), 100% = untreated cells
Protocol: as §1, §2

[6] = tested on: H596; experiment: Cell viability, trypan blue cell count assay; assay type: cell-based; conditions: Homo sapiens
Protocol: as §1, §2

[7] = tested on: HT1080; experiment: Cell viability, trypan blue cell count assay; assay type: cell-based; conditions: Homo sapiens, HT-1080, HT1080 (fibrosarcoma, wild-type p53), 100% = untreated cells
Protocol: as §1, §2

[8] = tested on: HeLa; experiment: Cell viability, trypan blue cell count assay; assay type: cell-based; conditions: Homo sapiens, HeLa (cervical, wild-type p53 inactivated by E6), 100% = untreated cells
Protocol: as §1, §2

[9] = tested on: Hep 3B; experiment: Cell viability, trypan blue cell count assay; assay type: cell-based; conditions: Homo sapiens, Hep3B, Hep 3B (liver, p53 deleted), 100% = untreated cells
Protocol: as §1, §2

[10] = tested on: MCF-7; experiment: Cell viability, trypan blue cell count assay; assay type: cell-based; conditions: Homo sapiens, MCF7, MCF-7 (breast, wild-type p53), 100% = untreated cells
Protocol: as §1, §2

[11] = tested on: SK-OV-433; experiment: Cell viability, trypan blue cell count assay; assay type: cell-based; conditions: Homo sapiens, SK-OV-433 (ovarian, wild-type p53), 100% = untreated cells
Protocol: as §1, §2

[12] = tested on: SiHa; experiment: Cell viability, trypan blue cell count assay; assay type: cell-based; conditions: Homo sapiens, SiHa (cervical, wild-type p53 inactivated by E6), 100% = untreated cells
[13] = tested on: p53 protein; experiment: p53 protein stability, pulse-chase with cycloheximide in H460; assay type: cell-based, human
Protocol: Cells were treated with 0.05 μg/ml fenbendazole or mebendazole for 24 h. After this, control (mock-treated) and drug-treated H460 cells were incubated with 10 μg/ml cycloheximide in drug-free medium for different times and then processed to obtain total cell extracts. Finally, samples were denatured by boiling them in SDS-loading buffer (100 mM Tris, pH 6.8; 2% SDS; 0.1% bromphenol blue; 10% glycerol; 25 μM β-mercaptoethanol) and loaded onto a 10% SDS-polyacrylamide gel. Blots were probed with anti-p53 monoclonal antibody B p53-12 (Santa Cruz Biotechnology, Inc.) and anti-actin monoclonal antibody (Amersham). The immunocomplexes were detected using the Enhanced Chemiluminescence kit according to the manufacturer's directions as described above. The intensities of the bands were quantitated with a PhosphoImager using ImageQuant™ Software (Molecular Dynamics, Sunnyvale, Calif.).
H460 cells were treated with 0.05 μg/ml FZ for 24 hr, and then both untreated control and treated cells were washed with PBS and treated with 24 μg/ml cyclohexamide. After that, cells were harvested at different times. The total cell protein was extracted and analyzed on a 10% polyacrylamide-gel, followed by Western blot analysis using p53 and actin monoclonal antibodies. […]
Data from the pulse-chase experiments were quantitated with a PhosphoImager using ImageQuant™ software. […]

[14] = tested on: p53 protein; experiment: p53 induction, immunoblot analysis of nuclear extracts; assay type: cell-based, human; parameters: p53 Induction: dose or concentration left out as unconfirmed

COC(=O)Nc1nc2ccc(C(=O)c3ccccc3)cc2[nH]1 [Mebendazole, Methyl 5-benzoylbenzimidazole-2-carbamate]
viability at 0.05 µg/mL [1]: 89.2 ± 4.3% | viability at 0.05 µg/mL [2]: 64.24 ± 0.2% | viability at 0.05 µg/mL [3]: 73.5 ± 1.8% | viability at 0.05 µg/mL [4]: 25.2 ± 7.6% | viability at 0.05 µg/mL [5]: 39.2 ± 10.7% | viability ([6]; NCI-H596, H596 (lung, R245C), 100% = untreated cells, read-out: % Cell Viability): 86.2 ± 8% | viability at 0.05 µg/mL [7]: 44.5 ± 7.7% | viability at 0.05 µg/mL [8]: 92.4 ± 6.27% | viability at 0.05 µg/mL [9]: 83.2 ± 1.5% | viability at 0.05 µg/mL [10]: 24.3 ± 8.4% | viability at 0.05 µg/mL [11]: 28.1 ± 6.1% | viability at 0.05 µg/mL [12]: 91.3 ± 8.6% | effect on half-life of the p53 protein [13]: prolong the half-life | p53 Induction ([14]; H226Br): No | p53 Induction ([14]; H322): No | p53 Induction ([14]; H358): No | p53 Induction ([14]; H460): Yes | p53 Induction ([14]; H549): Yes | p53 Induction ([14]; H596): No | p53 Induction ([14]; H1299): No | p53 Induction ([14]; HeLa): No | p53 Induction ([14]; Hep 3B): No | p53 Induction ([14]; MCF-7): Yes | p53 Induction ([14]; MDA 231): No | p53 Induction ([14]; RD): No | p53 Induction ([14]; SK-OV-433): Yes | p53 Induction ([14]; SW480): No | p53 Induction ([14]; Saos-2): No | p53 Induction ([14]; SiHa): No

COC(=O)Nc1nc2ccc(Sc3ccccc3)cc2[nH]1 [Fenbendazole, methy 5-(phenylthio)-2-benzimidazole-2-carbamate]
viability at 0.05 µg/mL [1]: 89.2 ± 1.1% | viability at 0.05 µg/mL [2]: 80.1 ± 11.1% | viability at 0.05 µg/mL [3]: 88.3 ± 17.8% | viability at 0.05 µg/mL [4]: 39.2 ± 6.4% | viability at 0.05 µg/mL [5]: 46.4 ± 13.3% | viability ([6]; NCI-H596, read-out: % Cell Viability): 86.7 ± 11.5% | viability at 0.05 µg/mL [7]: 54.5 ± 12% | viability at 0.05 µg/mL [8]: 93.6 ± 7.4% | viability at 0.05 µg/mL [9]: 79.5 ± 12.5% | viability at 0.05 µg/mL [10]: 43.9 ± 7.3% | viability at 0.05 µg/mL [11]: 52.5 ± 13.2% | viability at 0.05 µg/mL [12]: 94.5 ± 7.4% | effect on half-life of the p53 protein [13]: prolong the half-life | p53 Induction ([14]; H226Br): No | p53 Induction ([14]; H322): No | p53 Induction ([14]; H358): No | concentration at which induction of p53 became detectable ([14]; H460): 0.01 µg/mL | p53 Induction ([14]; H460): Yes | p53 Induction ([14]; H549): Yes | p53 Induction ([14]; H596): No | p53 Induction ([14]; H1299): No | p53 Induction ([14]; HeLa): No | induction of p53 production ([14]; HeLa (HPV-18) and SiHa (HPV-16) cells, 48 h, total cell proteins): no induction | p53 Induction ([14]; Hep 3B): No | p53 Induction ([14]; MCF-7): Yes | p53 Induction ([14]; MDA 231): No | p53 Induction ([14]; RD): No | p53 Induction ([14]; SK-OV-433): Yes | p53 Induction ([14]; SW480): No | p53 Induction ([14]; Saos-2): No | p53 Induction ([14]; SiHa): No
